Assay results taken from PubChem BioAssay (NCI).
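These data come from cells grown in 96-well plates and exposed to compound for 48 hours at five concentrations. GI50 marks 50% less growth. TGI denotes the concentration required for complete inhibition of growth.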

Assays:
Test in all cases: NCI anticancer screen, dose series, 48 h
[1] = test system: UO-31 renal
[2] = test system: HOP-62 NSCLC
[3] = test system: SN12C renal
[4] = test system: RXF 393 renal
[5] = test system: DLD-1 colon
[6] = test system: NCI-H522 lung
[7] = test system: A498 renal
[8] = test system: CCRF-CEM leukemia
[9] = test system: EKVX NSCLC
[10] = test system: LOX IMVI melanoma

Compound | TGI [1] [µM] | TGI [2] [µM] | TGI [3] [µM] | TGI [4] [µM] | TGI [5] [µM] | TGI [6] [µM] | TGI [7] [µM] | TGI [8] [µM] | GI50 [1] [µM] | GI50 [2] [µM] | GI50 [9] [µM] | TGI [9] [µM] | GI50 [3] [µM] | GI50 [10] [µM] | TGI [10] [µM] | GI50 [7] [µM] | GI50 [8] [µM] | GI50 [4] [µM] | GI50 [6] [µM]
CCOC(=O)NC/C=C/CO | > 100 | > 100 | > 100 | > 100 | > 100 | > 100 | > 100 | > 100 | – | – | – | – | – | – | – | – | – | – | –
COc1cc2c(cc1OCCCN1CCN(CCCn3c4ccccc4c4ccccc43)CC1)N=C[C@@H]1CCCN1C2=O | 0.491 | 2.46 | 1.51 | – | – | 0.182 | 0.35 | 0.118 | 0.174 | 0.242 | 0.268 | 0.988 | 0.243 | 0.0937 | 0.426 | 0.158 | 0.0218 | – | –
CC(C)C12CCC3(CCC4C(C)(C(=O)O)CCCC4(C)C3C1)C(CN)C2 (configuration not stated) | > 100 | > 100 | 43.3 | > 100 | – | 70.3 | 98.4 | 19.4 | – | – | – | 62 | – | – | 34.7 | – | – | – | –
COC(=O)C(NC(=O)c1ccccc1)c1ccc(OC)c(I)c1 (configuration not stated) | > 100 | > 100 | > 100 | > 100 | – | > 100 | > 100 | > 100 | 76 | > 100 | 89.1 | > 100 | > 100 | 46.9 | > 100 | > 100 | 53.8 | > 100 | 43.6
O=C(/C=C/N1CCN(c2cccc(Cl)c2)CC1)c1ccc(Cl)cc1 | > 100 | > 100 | 65 | > 100 | – | 54.6 | 48.1 | 66.7 | 31.5 | 48.4 | 25.9 | 85.3 | 24.1 | 32.3 | 96.9 | 21.8 | 22.6 | 39.1 | 18.9
COc1cc(COC(=O)NC(Cc2cccs2)C(=O)O)c([N+](=O)[O-])cc1OC (configuration not stated) | > 100 | > 100 | > 100 | > 100 | – | – | > 100 | > 100 | – | – | – | > 100 | – | – | – | – | – | – | –
CC(C)c1nc(Cl)c(Cl)c(Cl)n1 | 2.66 | 25.9 | 16.9 | 7.97 | – | 8.64 | 52 | 9.33 | – | – | – | 29.1 | – | – | 1.71 | – | – | – | –
COC(=O)C1=C(C)N(NC(=O)Nc2ccccc2)C2(N)N(NC(=O)Nc3ccccc3)C(C)=C(C(=O)OC)C12C(=O)OC (configuration not stated) | > 100 | – | > 100 | > 100 | > 100 | > 100 | > 100 | > 100 | – | – | – | – | – | – | > 100 | – | – | – | –
CC(=O)Nc1ccc(C(=O)COc2cccc(/C=C3\CCc4ccccc4C3=O)c2)cc1 | 64 | 60.3 | > 100 | 57.8 | – | 32.8 | > 100 | 6.09 | 15.5 | 24 | 14.3 | 68.7 | 27.6 | 6.59 | 25.4 | 53.6 | 2.31 | 24.8 | 6.55
Nc1ccc(N)c2c1C(=O)c1cccc([N+](=O)[O-])c1C2=O | > 22.6 | 7.88 | > 100 | 54.9 | – | 17.9 | 1.03 | > 100 | 2.68 | 1.62 | 7.72 | > 100 | 2.48 | 1.84 | > 100 | 0.125 | 7.95 | 7.16 | 1.46
Cc1cc(C2(c3cc(C)c(O)c4ncccc34)OC(=O)c3ccccc32)c2cccnc2c1O | – | > 100 | 12.1 | > 100 | – | > 100 | > 100 | > 100 | – | 0.643 | 0.0124 | – | – | – | > 100 | 12.3 | – | – | –
CCNc1nc(-c2ccc(Cl)c(OC)c2)c(-c2ccnc(NCCNS(=O)(=O)c3ccc(Cl)cc3)n2)s1 | 6.37 | 7.69 | > 100 | 5.1 | – | 4.35 | 6.52 | > 100 | 2.51 | 3.2 | 3.74 | > 100 | 3.41 | 2.32 | 5.69 | 1.5 | 2.83 | 2 | 1.92
CCOC(=O)c1c(/C=N\Nc2ccccc2)nc2ccccc2c1-c1ccccc1 | 98.7 | > 100 | > 100 | > 100 | – | 67.1 | > 100 | 88 | – | – | – | > 100 | – | – | > 100 | – | – | – | –
Nc1nc(N)c(-c2ccccc2)c(C(=O)Nc2nccs2)n1 | > 100 | > 100 | > 100 | > 100 | > 100 | – | – | > 100 | – | – | – | > 100 | – | – | > 100 | – | – | – | –
CCC(=C(c1ccc(OCCN(CC)CC)cc1)c1ccc(OCCN(CC)CC)cc1)c1ccc(Cl)cc1 | 0.94 | 1.28 | 1.24 | 0.962 | – | 1.21 | 1.66 | 1.74 | 0.484 | 0.598 | 0.641 | 1.46 | 0.606 | 0.55 | 1.03 | 0.591 | 0.641 | 0.485 | 0.564
COc1ccc(Cl)cc1Nc1nc(C(F)(F)F)ccc1C(=O)N/N=C/c1ccc(Cl)cc1 | > 100 | 24 | > 100 | 53.2 | – | 42.5 | > 100 | 10.3 | 1.03 | 3.51 | 4.45 | > 100 | 8.67 | 8.08 | > 100 | 18.2 | 0.594 | 4.56 | 4.16
N#Cc1c(N/N=C/c2c(Cl)cccc2Cl)nc(N)nc1N1CCCC1 | > 100 | > 100 | > 100 | > 100 | – | 13.3 | 3.18 | 16.1 | 5.36 | 1.7 | 39.7 | > 100 | 4.68 | 2.16 | > 100 | 0.502 | 3.52 | 2.34 | 2.63
